Results: patent US12415987B2, “Methods and composition for producing and using immune cells and stem cells for cell-based therapies” (Angeles Therapeutics, Inc., priority 2016, dated 2025)

Tests used:
Format in all cases: cell-based, human
T cells [1] = test: Chemotherapeutic selection of T cells: cell death by propidium iodide staining;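 note: CD3 microbead-isolated T cells cultured with chemotherapy drugs, dead cells scored as propidium iodide-positive by flow cytometry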
Experimental: (§4) T cells were isolated using CD3 microbeads. Cells were resuspended in T cell culture medium and treated under the following conditions. • 1. High dose Vincristine Treatment: Cells were treated with Vincristine (Sigma) at doses of 100, 250, 500, 750, 1000 ng/ml for 24 h. The following day, the medium was changed and cells cultured in Vincristine-free medium. • 2. Intermediate Dose Vincristine Treatment: Cells were treated with vincristine at intermediate doses of 5, 10, 20, 30, 50 ng/ml with continuous exposure of the drug thereafter. • 3. Low dose Vincristine Treatment: Cells were treated with vincristine at low doses 0.5, 1, 2, 2.5, 3 ng/ml with continuous exposure to the drug thereafter.
(§5) Cells were treated with Etoposide at dose 100, 500, 1000 nM • 6. Cells were treated with Adriamycin (doxorubicin) at 0.1, 0.5, 1 μg/ml
(§6) T cells treated with intermediate and high dose of vincristine were checked for Pgp^+ enrichment by DiOC2(3) efflux assay and cell death by Propidium iodide staining after 2 days of treatment. Cells were analyzed by flow cytometry.

Pgp^+ T cells = test: Chemotherapeutic selection of T cells: Pgp+ enrichment by DiOC2(3) efflux assay; conditions: for % pgp+ (out of live cells): 8 days post-treatment; for % Pgp^+ (DiOC2(3)-dull) (out of live cells): 2 days post-treatment; for % Pgp+ (DiOC2(3)-dull) (gated on live cells): 7 days post-treatment;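 for all read-outs here: CD3-isolated T cells exposed to chemotherapeutics, then loaded with DiOC2(3) and left to efflux dye, PI stained, flow cytometry, Pgp+ cells read as DiOC2(3)-dull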
Experimental: Half (6 million) of the T cells were left untreated while the remaining half were treated with 10 μM of TH9402 compound. Cells were incubated at 37° C. in a water bath in dark for 40 min, washed with T-cell medium and then resuspended in TH9402-free T-cell medium. Cells were allowed to efflux TH9402 at 37° C. in dark in 10 ml of T cell medium for 2 h. Cells were centrifuged and re-suspended in fresh medium. Each sample was then plated in 2 wells of two different 6-well plates. One plate was left unexposed to light and the second plate was exposed for 1 h to light (1000×10 Lux units) from an LED lamp. […] After light exposure, cells were incubated in the XVIVO T cell medium with 5 ng/ml IL7 at 37° C. for 2 days in a 5% CO2 incubator. After 2 days, an aliquot of the cells were stained at 4° C. for 40 min with DiOC2(3) (60 ng/ml) in 10 ml RPMI with 10% FBS medium. DiOC2(3) is a known substrate of Pgp. Cells were centrifuged, washed, resuspended in 10 ml of dye-free RPMI-10% FBS medium to efflux dye at 37° C. for 90 min. After Dye efflux, the cells were stained with Propidium iodide (PI) and examined by flow cytometry.
as §4, §5, §6

Pgp-expressing T cells = test: Photodynamic cell therapy with TH9402: Pgp+ T cells by DiOC2(3) efflux (and CD62L staining); conditions: for % Pgp^+ cells (DiOC2(3)-dull): after 2 days
Experimental: (§1) T cells were isolated using PAN T-cell isolation kit (Miltenyi cat no. 130-096-535) from buffy coat preparation following Ficoll-Hypaque separation and RBC lysis as described above. 12 million T cells were resuspended at 1 million cells/ml in XVIVO T cell medium (Lonza) supplemented with 5 ng/ml IL7. Half (6 million) of the T cells were left untreated while the remaining half were treated with 10 μM of TH9402 compound. Cells were incubated at 37° C. in a water bath in dark for 40 min, washed with T-cell medium and then resuspended in TH9402-free T-cell medium. Cells were allowed to efflux TH9402 at 37° C. in dark in 10 ml of T cell medium for 2 h. Cells were centrifuged and re-suspended in fresh medium. Each sample was then plated in 2 wells of two different 6-well plates. One plate was left unexposed to light and the second plate was exposed for 1 h to light (1000×10 Lux units) from an LED lamp. Alternatively, light treatment can be achieved by exposure to a fluorescent light-scanning device (PDCT-Xerox Series 4, Theratechnologies) delivering 5 J/cm^2 at wavelength of 514 nm. After light exposure, cells were incubated in the XVIVO T cell medium with 5 ng/ml IL7 at 37° C. for 2 days in a 5% CO2 incubator. After 2 days, an aliquot of the cells were stained at 4° C. for 40 min with DiOC2(3) (60 ng/ml) in 10 ml RPMI with 10% FBS medium. DiOC2(3) is a known substrate of Pgp. Cells were centrifuged, washed, resuspended in 10 ml of dye-free RPMI-10% FBS medium to efflux dye at 37° C. for 90 min. After Dye efflux, the cells were stained with Propidium iodide (PI) and examined by flow cytometry. […] Furthermore, in the group that was treated with the TH9402 compound and then exposed to light, there was further enrichment for Pgp-expressing T cells (from 10% to 80%).
(§2) After 6 days, 250 μl cell aliquot from T cells were stained with DiOC2(3), allowed to efflux the dye and then stained with CD62L-APC, a marker present on human memory stem T cells (TSCM) with stem like properties.
(§3) After 9 days, 1 ml cell aliquot from T cells were stained with DiOC2(3), allowed to efflux the dye and then stained with CD62L-APC, a marker present on human memory stem T cells (TSCM) with stem like properties. Cells were then analyzed by flow cytometry. The % of cells in the different fractions are shown in FIG. 2 and the following table which show there is a significant decline in cell viability following exposure to light in both TH9402-treated and untreated cells.

PBMC = test: Photodynamic TH9402 experiment repeated with PBMC; conditions: PBMC rather than purified T cells
T cells [2] = test: Photodynamic cell therapy with TH9402: live T cells by flow cytometry / propidium iodide; conditions: for % live cells (Propidium iodide negative): after 9 days
Experimental: as §1, §2, §3

[3] = 10 μM TH9402, 1 h exposure to light
[4] = 10 μM TH9402, 1 h exposure to light, after 6 days
[5] = 10 μM TH9402, 1 h exposure to light, after 9 days
[6] = 10 μM TH9402, unexposed to light
[7] = 10 μM TH9402, unexposed to light, after 6 days
[8] = 10 μM TH9402, unexposed to light, after 9 days
[9] = 100 ng/ml for 24 h then drug-free medium
[10] = 250 ng/ml for 24 h then drug-free medium
[11] = 500 ng/ml for 24 h then drug-free medium
[12] = 750 ng/ml for 24 h then drug-free medium
[13] = 1 μg/ml for 24 h then drug-free medium

## COc1cccc2c1C(=O)c1c(O)c3c(c(O)c1C2=O)C[C@@](O)(C(=O)CO)C[C@@H]3O[C@H]1C[C@H](N)[C@H](O)[C@H](C)O1 [Adriamycin, doxorubicin]
T cells [1]; 8 days post-treatment, 0.1 μg/ml
  % Cell Death (PI+ cells): 5%
T cells [1]; 8 days post-treatment, 0.5 μg/ml
  % Cell Death (PI+ cells): 7%
T cells [1]; 8 days post-treatment, 1 μg/ml
  % Cell Death (PI+ cells): 12%
Pgp^+ T cells; 1 μg/ml, after 8 days of treatment
  enrichment of Pgp^+ or DiOC2(3)-dull cells (in words): significant enrichment
Pgp^+ T cells; 0.1 μg/ml
  % pgp+ (out of live cells): 16%
Pgp^+ T cells; 0.5 μg/ml
  % pgp+ (out of live cells): 16%
Pgp^+ T cells; 1 μg/ml
  % pgp+ (out of live cells): 27%

## COc1cc([C@@H]2c3cc4c(cc3[C@@H](O[C@@H]3O[C@@H]5CO[C@@H](C)O[C@H]5[C@H](O)[C@H]3O)[C@H]3COC(=O)[C@H]23)OCO4)cc(OC)c1O [Etoposide]
T cells [1]; 8 days post-treatment, 0.1 uM
  % Cell Death (PI+ cells): 5%
T cells [1]; 8 days post-treatment, 1 uM
  % Cell Death (PI+ cells): 5%
T cells [1]; 8 days post-treatment, 0.5 unM
  % Cell Death (PI+ cells): 4%
Pgp^+ T cells; 0.1 uM
  % pgp+ (out of live cells): 15%
Pgp^+ T cells; 1 uM
  % pgp+ (out of live cells): 15%
Pgp^+ T cells; 0.5 unM
  % pgp+ (out of live cells): 16%

## CO[C@H]1C[C@@H]2CC[C@@H](C)[C@@](O)(O2)C(=O)C(=O)N2CCCC[C@H]2C(=O)O[C@H]([C@H](C)C[C@@H]2CC[C@@H](O)[C@H](OC)C2)CC(=O)[C@H](C)/C=C(\C)[C@@H](O)[C@@H](OC)C(=O)[C@H](C)C[C@H](C)/C=C/C=C/C=C/1C [Rapamycin]
T cells [1]; 8 days post-treatment, 100 ng/ml
  % Cell Death (PI+ cells): 11%
Pgp^+ T cells; 100 ng/ml
  % pgp+ (out of live cells): 15%

## COC(=O)c1ccccc1-c1c2ccc(=N)c(Br)c-2oc2c(Br)c(N)ccc12 [TH9402]
Pgp-expressing T cells; [3]
  % Pgp^+ cells (DiOC2(3)-dull): 80%
Pgp-expressing T cells; [4]
  % Pgp^+ (DiOC2(3)-dull cells (based on dye efflux) (gated on live cells)): 70%
  % Pgp^+ (DiOC2(3)-dull), CD62L+ cells (gated on live cells): 69%
Pgp-expressing T cells; [5]
  % Pgp^+ (DiOC2(3)-dull cells (based on dye efflux) (gated on live cells)): 79%
  % Pgp^+ (DiOC2(3)-dull), CD62L+ cells (gated on live cells): 67%
Pgp-expressing T cells; [6]
  % Pgp^+ cells (DiOC2(3)-dull): 10%
Pgp-expressing T cells; [7]
  % Pgp^+ (DiOC2(3)-dull cells (based on dye efflux) (gated on live cells)): 4%
  % Pgp^+ (DiOC2(3)-dull), CD62L+ cells (gated on live cells): 2%
Pgp-expressing T cells; [8]
  % Pgp^+ (DiOC2(3)-dull cells (based on dye efflux) (gated on live cells)): 45%
  % Pgp^+ (DiOC2(3)-dull), CD62L+ cells (gated on live cells): 21%
PBMC
  enrichment of Pgp-expressing cells, experiment repeated with PBMC: Essentially similar results
T cells [2]; 10 μM TH9402, 1 h exposure to light, after 2 days
  % live cells (P1): 10%
T cells [2]; [4]
  % live cells (P1): 14%
T cells [2]; [3]
  % live cells (Propidium iodide negative): 27%
T cells [2]; 10 μM TH9402, unexposed to light, after 2 days
  % live cells (P1): 78%
T cells [2]; [7]
  % live cells (P1): 75%
T cells [2]; [6]
  % live cells (Propidium iodide negative): 79%

## COc1ccc(CCN(C)CCCC(C#N)(c2ccc(OC)c(OC)c2)C(C)C)cc1OC (stereo not drawn) [Verapamil]
T cells [1]; 8 days post-treatment, 1 uM
  % Cell Death (PI+ cells): 4%
T cells [1]; 8 days post-treatment, 5 uM
  % Cell Death (PI+ cells): 3%
T cells [1]; 8 days post-treatment, 10 uM
  % Cell Death (PI+ cells): 3%

## CC[C@]1(O)C[C@H]2CN(CCc3c([nH]c4ccccc34)[C@@](C(=O)OC)(c3cc4c(cc3OC)N(C=O)[C@H]3[C@@](O)(C(=O)OC)[C@H](OC(C)=O)[C@]5(CC)C=CCN6CC[C@]43[C@@H]65)C2)C1 [Vincristine]
T cells [1]; 2 days post-treatment, 5 ng/ml, continuous exposure
  % Cell Death (PI+ cells): 13%
T cells [1]; 2 days post-treatment, 10 ng/ml, continuous exposure
  % Cell Death (PI+ cells): 15%
T cells [1]; 2 days post-treatment, 20 ng/ml, continuous exposure
  % Cell Death (PI+ cells): 15%
T cells [1]; 2 days post-treatment, 30 ng/ml, continuous exposure
  % Cell Death (PI+ cells): 20%
T cells [1]; 2 days post-treatment, 50 ng/ml, continuous exposure
  % Cell Death (PI+ cells): 15%
T cells [1]; 2 days post-treatment, 100 ng/ml for 24 h then drug-free medium
  % Cell Death (PI+ cells): 28%
T cells [1]; 2 days post-treatment, 250 ng/ml for 24 h then drug-free medium
  % Cell Death (PI+ cells): 31%
T cells [1]; 2 days post-treatment, 500 ng/ml for 24 h then drug-free medium
  % Cell Death (PI+ cells): 27%
T cells [1]; 2 days post-treatment, 750 ng/ml for 24 h then drug-free medium
  % Cell Death (PI+ cells): 30%
T cells [1]; 2 days post-treatment, 1 μg/ml for 24 h then drug-free medium
  % Cell Death (PI+ cells): 31%
T cells [1]; 7 days post-treatment, 0.5 ng/ml, continuous exposure
  % Cell Death (PI+ cells): 10%
T cells [1]; 7 days post-treatment, 1 ng/ml, continuous exposure
  % Cell Death (PI+ cells): 12%
T cells [1]; 7 days post-treatment, 2 ng/ml, continuous exposure
  % Cell Death (PI+ cells): 8%
T cells [1]; 7 days post-treatment, 2.5 ng/ml, continuous exposure
  % Cell Death (PI+ cells): 10%
T cells [1]; 7 days post-treatment, 3 ng/ml, continuous exposure
  % Cell Death (PI+ cells): 14%
T cells [1]; 7 days post-treatment, 5 ng/ml, continuous exposure
  % Cell Death (PI+ cells): 9%
T cells [1]; 7 days post-treatment, 10 ng/ml, continuous exposure
  % Cell Death (PI+ cells): 9%
T cells [1]; 7 days post-treatment, 20 ng/ml, continuous exposure
  % Cell Death (PI+ cells): 9%
T cells [1]; 7 days post-treatment, 50 ng/ml, continuous exposure
  % Cell Death (PI+ cells): 14%
T cells [1]; 7 days post-treatment, 100 ng/ml for 24 h then drug-free medium
  % Cell Death (PI+ cells): 16%
T cells [1]; 7 days post-treatment, 250 ng/ml for 24 h then drug-free medium
  % Cell Death (PI+ cells): 25%
T cells [1]; 7 days post-treatment, 500 ng/ml for 24 h then drug-free medium
  % Cell Death (PI+ cells): 26%
T cells [1]; 7 days post-treatment, 750 ng/ml for 24 h then drug-free medium
  % Cell Death (PI+ cells): 29%
T cells [1]; 7 days post-treatment, 1 μg/ml for 24 h then drug-free medium
  % Cell Death (PI+ cells): 23%
Pgp^+ T cells; 5 ng/ml, continuous exposure
  % Pgp^+ (DiOC2(3)-dull) (out of live cells): 8%
  % Pgp+ (DiOC2(3)-dull) (gated on live cells): 8%
Pgp^+ T cells; 10 ng/ml, continuous exposure
  % Pgp^+ (DiOC2(3)-dull) (out of live cells): 9%
  % Pgp+ (DiOC2(3)-dull) (gated on live cells): 10%
Pgp^+ T cells; 20 ng/ml, continuous exposure
  % Pgp^+ (DiOC2(3)-dull) (out of live cells): 9%
  % Pgp+ (DiOC2(3)-dull) (gated on live cells): 10%
Pgp^+ T cells; 30 ng/ml, continuous exposure
  % Pgp^+ (DiOC2(3)-dull) (out of live cells): 11%
Pgp^+ T cells; 50 ng/ml, continuous exposure
  % Pgp^+ (DiOC2(3)-dull) (out of live cells): 10%
  % Pgp+ (DiOC2(3)-dull) (gated on live cells): 9%
Pgp^+ T cells; [9]
  % Pgp^+ (DiOC2(3)-dull) (out of live cells): 11%
  % Pgp+ (DiOC2(3)-dull) (gated on live cells): 13%
Pgp^+ T cells; [10]
  % Pgp^+ (DiOC2(3)-dull) (out of live cells): 11%
  % Pgp+ (DiOC2(3)-dull) (gated on live cells): 11%
Pgp^+ T cells; [11]
  % Pgp^+ (DiOC2(3)-dull) (out of live cells): 13%
  % Pgp+ (DiOC2(3)-dull) (gated on live cells): 9%
Pgp^+ T cells; [12]
  % Pgp^+ (DiOC2(3)-dull) (out of live cells): 14%
  % Pgp+ (DiOC2(3)-dull) (gated on live cells): 10%
Pgp^+ T cells; [13]
  % Pgp^+ (DiOC2(3)-dull) (out of live cells): 14%
  % Pgp+ (DiOC2(3)-dull) (gated on live cells): 18%
Pgp^+ T cells; 0.5 ng/ml, continuous exposure
  % Pgp+ (DiOC2(3)-dull) (gated on live cells): 7%
Pgp^+ T cells; 1 ng/ml, continuous exposure
  % Pgp+ (DiOC2(3)-dull) (gated on live cells): 7%
Pgp^+ T cells; 2 ng/ml, continuous exposure
  % Pgp+ (DiOC2(3)-dull) (gated on live cells): 7%
Pgp^+ T cells; 2.5 ng/ml, continuous exposure
  % Pgp+ (DiOC2(3)-dull) (gated on live cells): 7%
Pgp^+ T cells; 3 ng/ml, continuous exposure
  % Pgp+ (DiOC2(3)-dull) (gated on live cells): 9%
Pgp^+ T cells; higher dose treatments, after 2 days
  enrichment of Pgp^+ cells (in words): modest enrichment
